# Where two headings read alike, the source gives them in different places.
# Key:
# JJN3 = experiment: Cell proliferation assay, JJN3 (MM); format: cell-based
# Method: (§1) Cell proliferation was analyzed after 48 hours of in vitro treatment using the CellTiter 96 Aqueous One Solution Cell Proliferation Assay (Promega, Madison, Wis.). This is a colorimetric method for determining the number of viable cells in proliferation.
# (§2) For the assay, suspension cells were cultured by triplicate at a density of 1×10^6 cells/ml in 96-well plates (100.000 cells/well, 100 μl/well), except for OCILY-3 and OCILY-10 cell lines which were cultured at a density of 0.5×10^6 cells/ml (50.000 cells/well, 100 μl/well) and for HepG2, Hep3B and PLC/PRF/5 cell ines which were cultured at a density of 3000 cells/well, 100 μl/well). Adherent cells were obtained from 80-90% confluent flasks and 100 μl of cells were seeded at a density of 5000 cells/well in 96-well plates by triplicate. Before addition of the compounds, adherent cells were allowed to attach to the bottom of the wells for 12 hours. In all cases, only the 60 inner wells were used to avoid any border effects.
# (§3) After 48 hours of treatment, plates with suspension cells were centrifuged at 800 g for 10 minutes and medium was removed. The plates with adherent cells were flicked to remove medium. Then, cells were incubated with 100 ul/well of medium and 20 ul/well of CellTiter 96 Aqueous One Solution reagent. After 1-3 hours of incubation at 37° C., absorbance was measured at 490 nm in a 96-well plate reader. The background absorbance was measured in wells with only cell line medium and solution reagent. Data was calculated as a percentage of total absorbance of treated cell/absorbance of non treated cells.
# CEMO-1 = experiment: Cell proliferation assay, CEMO-1 (ALL); format: cell-based, human
# Method: as §1, §2, §3
# MV411 = experiment: Cell proliferation assay, MV411 / MV4-11 (AML); format: cell-based
# Method: as §1, §2, §3
# (§4) Compounds 3-04 and 3-07 were tested against different solid tumour and oncohematological cell lines using the cell proliferation protocol described above.
# LAL-CUN-2 = experiment: Cell proliferation assay, LAL-CUN-2 (ALL); format: cell-based
# Method: as §1, §2, §3
# U266 = experiment: Cell proliferation assay, U266 (MM); format: cell-based
# Method: as §1, §2, §3
# OCI-AML-2 = experiment: Cell proliferation assay, OCI-AML-2 (AML); format: cell-based
# Method: as §1, §2, §3, §4
# BJ human fibroblasts [1] = experiment: iPSC reprogramming of BJ human fibroblasts with retroviral vectors (O:S); format: cell-based; details: compound concentration 200 nM
# DNMT3A = DNMT3A (Homo sapiens, UniProt Q9Y6K1); experiment: DNMT3A inhibition reported in the literature; format: biochemical; details: read-out: IC50 against DNMT3A
# Chain of DNMT3A (Q9Y6K1 whole entry, looked up, species assumed): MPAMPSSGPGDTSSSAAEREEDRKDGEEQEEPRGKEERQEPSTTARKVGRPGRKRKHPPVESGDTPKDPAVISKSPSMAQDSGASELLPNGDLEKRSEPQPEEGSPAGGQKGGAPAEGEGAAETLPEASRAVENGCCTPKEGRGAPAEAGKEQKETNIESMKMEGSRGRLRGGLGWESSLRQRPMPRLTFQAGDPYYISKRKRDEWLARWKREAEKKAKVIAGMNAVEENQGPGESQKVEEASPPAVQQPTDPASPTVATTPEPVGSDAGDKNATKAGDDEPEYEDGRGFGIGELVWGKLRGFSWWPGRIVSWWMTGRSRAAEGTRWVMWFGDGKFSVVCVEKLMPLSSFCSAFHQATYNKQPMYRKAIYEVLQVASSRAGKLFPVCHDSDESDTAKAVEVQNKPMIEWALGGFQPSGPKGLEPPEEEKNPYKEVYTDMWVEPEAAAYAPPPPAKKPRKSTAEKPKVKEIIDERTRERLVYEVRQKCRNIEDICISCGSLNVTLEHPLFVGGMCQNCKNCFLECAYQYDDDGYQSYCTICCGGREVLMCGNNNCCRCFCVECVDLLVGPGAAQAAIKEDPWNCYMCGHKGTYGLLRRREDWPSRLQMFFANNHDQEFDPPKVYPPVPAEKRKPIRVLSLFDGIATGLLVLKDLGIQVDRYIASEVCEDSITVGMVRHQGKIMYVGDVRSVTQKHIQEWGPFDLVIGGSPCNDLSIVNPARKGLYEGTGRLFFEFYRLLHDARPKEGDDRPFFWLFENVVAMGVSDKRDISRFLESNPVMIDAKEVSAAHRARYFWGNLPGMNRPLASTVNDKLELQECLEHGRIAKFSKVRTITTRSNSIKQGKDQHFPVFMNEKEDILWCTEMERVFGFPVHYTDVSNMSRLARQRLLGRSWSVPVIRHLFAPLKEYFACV
# BJ human fibroblasts [2] = experiment: iPSC reprogramming of BJ human fibroblasts with lentiviral vectors (O:S:K:M); format: cell-based; details: compound concentration 200 nM
# Description: The used reprogramming system consisted in four independent doxycycline inducible lentiviral vectors (FUW-Tet-O based vectors) coding for the human OCT4 (addgene, ref#20726), SOX2 (addgene, ref#20724), KLF4 (addgene, ref#20725) and cMYC (addgene, ref#20723) transcription factors (O:S:K:M) Vesicular Stomatitis Virus G (VSVG)-coated lentiviruses were generated in 293T cells as described previously (Tiscornia et al., Nat Protoc. 2006; 1(1):241-5.). Briefly, 293T cells (ATCC, CRL-3216) were transfected with FUW-TetO lentiviral vectors referred above along with packaging plasmids psPAX2 (addgene, ref#12260) and pMD2.G (addgene, ref#12259) under the same conditions as those disclosed by Tiscornia et al, supra. […]
# • Day 2: Second infection of BJ cells (same conditions that first infection). • Day 3: Replate BJ cells in 2×175 cm^2 culture flask in fresh FCM. • Day 4: Incubate 1×175 cm^2 flask with 0.2 μM or 0.1 μM of test compound and the other flask just with FCM. Compound concentrations were selected according to the determined GI50 in BJ human fibroblasts, in order to avoid cytotoxicity. […]
# Reprogramming efficiency was quantified four weeks after infection. Presence of ESC-like colonies was detected by alkaline phosphatase (AP) staining using Leukocyte Alkaline Phosphatase Kit (Sigma) according to the manufacturer's protocol.
# DNMT1 [3] = target: T1, DNMT1 (Homo sapiens, UniProt P26358); experiment: DNMT1 inhibition reported in the literature; format: biochemical; details: read-out: IC50 against DNMT1
# Target sequence in this assay (P26358 whole entry, species assumed): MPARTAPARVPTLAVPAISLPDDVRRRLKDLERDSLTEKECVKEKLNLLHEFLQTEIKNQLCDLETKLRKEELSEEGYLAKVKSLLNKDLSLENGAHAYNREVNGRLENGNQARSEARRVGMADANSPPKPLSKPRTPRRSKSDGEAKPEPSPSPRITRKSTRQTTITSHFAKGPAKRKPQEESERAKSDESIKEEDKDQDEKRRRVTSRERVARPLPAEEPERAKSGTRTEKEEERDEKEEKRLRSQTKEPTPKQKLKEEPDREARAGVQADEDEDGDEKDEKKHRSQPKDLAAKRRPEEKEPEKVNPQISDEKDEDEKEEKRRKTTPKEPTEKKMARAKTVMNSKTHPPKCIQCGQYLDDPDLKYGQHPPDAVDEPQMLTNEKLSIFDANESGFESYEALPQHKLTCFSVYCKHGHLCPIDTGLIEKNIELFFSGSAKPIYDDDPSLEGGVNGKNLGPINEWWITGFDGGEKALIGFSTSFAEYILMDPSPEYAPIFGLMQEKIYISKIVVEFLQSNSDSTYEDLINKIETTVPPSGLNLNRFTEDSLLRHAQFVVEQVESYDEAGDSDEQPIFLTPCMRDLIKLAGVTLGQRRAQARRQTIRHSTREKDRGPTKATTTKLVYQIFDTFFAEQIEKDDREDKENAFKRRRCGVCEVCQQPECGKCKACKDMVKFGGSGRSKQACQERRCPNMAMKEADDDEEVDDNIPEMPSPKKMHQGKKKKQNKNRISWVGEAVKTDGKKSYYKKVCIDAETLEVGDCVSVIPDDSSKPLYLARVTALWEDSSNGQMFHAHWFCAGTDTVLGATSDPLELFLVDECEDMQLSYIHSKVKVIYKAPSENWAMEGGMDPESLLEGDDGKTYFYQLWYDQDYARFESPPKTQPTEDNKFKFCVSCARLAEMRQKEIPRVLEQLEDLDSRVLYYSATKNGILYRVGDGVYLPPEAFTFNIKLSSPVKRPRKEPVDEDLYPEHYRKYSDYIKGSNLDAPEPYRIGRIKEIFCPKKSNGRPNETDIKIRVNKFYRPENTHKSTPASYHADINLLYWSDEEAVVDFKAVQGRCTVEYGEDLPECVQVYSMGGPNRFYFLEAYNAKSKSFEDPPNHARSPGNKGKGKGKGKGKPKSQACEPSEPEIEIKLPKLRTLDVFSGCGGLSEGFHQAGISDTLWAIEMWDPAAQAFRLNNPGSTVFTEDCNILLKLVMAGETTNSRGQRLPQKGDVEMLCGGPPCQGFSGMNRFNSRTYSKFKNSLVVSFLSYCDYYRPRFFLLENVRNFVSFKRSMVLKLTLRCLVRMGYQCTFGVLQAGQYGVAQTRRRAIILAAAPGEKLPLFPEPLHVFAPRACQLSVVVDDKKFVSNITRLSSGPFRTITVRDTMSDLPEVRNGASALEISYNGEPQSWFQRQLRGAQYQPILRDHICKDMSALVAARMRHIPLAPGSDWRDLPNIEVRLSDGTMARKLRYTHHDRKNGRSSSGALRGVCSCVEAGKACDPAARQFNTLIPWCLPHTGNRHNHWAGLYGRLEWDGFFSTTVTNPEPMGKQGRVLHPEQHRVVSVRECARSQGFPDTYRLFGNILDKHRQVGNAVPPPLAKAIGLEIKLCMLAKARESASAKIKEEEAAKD
# HepG2 = experiment: Cell proliferation assay, HepG2 (HCC); format: cell-based; details: Homo sapiens, 48 hours of treatment, Table 3
# Method: as §1, §2, §3
# OCI-Ly10 = experiment: Cell proliferation assay, OCI-Ly10 (ABC-DLBCL); format: cell-based; details: Homo sapiens, 48 hours of treatment, Table 3
# Method: as §1, §2, §3
# Hep3B = experiment: Cell proliferation assay, Hep3B (HCC); format: cell-based; details: Homo sapiens, 48 hours of treatment, Table 3
# Method: as §1, §2, §3
# human G9a enzyme = target: T2, human G9a enzyme (Homo sapiens, UniProt Q96KQ7); experiment: G9a enzyme activity assay (TR-FRET); format: biochemical
# T2 sequence (Q96KQ7 1-1210): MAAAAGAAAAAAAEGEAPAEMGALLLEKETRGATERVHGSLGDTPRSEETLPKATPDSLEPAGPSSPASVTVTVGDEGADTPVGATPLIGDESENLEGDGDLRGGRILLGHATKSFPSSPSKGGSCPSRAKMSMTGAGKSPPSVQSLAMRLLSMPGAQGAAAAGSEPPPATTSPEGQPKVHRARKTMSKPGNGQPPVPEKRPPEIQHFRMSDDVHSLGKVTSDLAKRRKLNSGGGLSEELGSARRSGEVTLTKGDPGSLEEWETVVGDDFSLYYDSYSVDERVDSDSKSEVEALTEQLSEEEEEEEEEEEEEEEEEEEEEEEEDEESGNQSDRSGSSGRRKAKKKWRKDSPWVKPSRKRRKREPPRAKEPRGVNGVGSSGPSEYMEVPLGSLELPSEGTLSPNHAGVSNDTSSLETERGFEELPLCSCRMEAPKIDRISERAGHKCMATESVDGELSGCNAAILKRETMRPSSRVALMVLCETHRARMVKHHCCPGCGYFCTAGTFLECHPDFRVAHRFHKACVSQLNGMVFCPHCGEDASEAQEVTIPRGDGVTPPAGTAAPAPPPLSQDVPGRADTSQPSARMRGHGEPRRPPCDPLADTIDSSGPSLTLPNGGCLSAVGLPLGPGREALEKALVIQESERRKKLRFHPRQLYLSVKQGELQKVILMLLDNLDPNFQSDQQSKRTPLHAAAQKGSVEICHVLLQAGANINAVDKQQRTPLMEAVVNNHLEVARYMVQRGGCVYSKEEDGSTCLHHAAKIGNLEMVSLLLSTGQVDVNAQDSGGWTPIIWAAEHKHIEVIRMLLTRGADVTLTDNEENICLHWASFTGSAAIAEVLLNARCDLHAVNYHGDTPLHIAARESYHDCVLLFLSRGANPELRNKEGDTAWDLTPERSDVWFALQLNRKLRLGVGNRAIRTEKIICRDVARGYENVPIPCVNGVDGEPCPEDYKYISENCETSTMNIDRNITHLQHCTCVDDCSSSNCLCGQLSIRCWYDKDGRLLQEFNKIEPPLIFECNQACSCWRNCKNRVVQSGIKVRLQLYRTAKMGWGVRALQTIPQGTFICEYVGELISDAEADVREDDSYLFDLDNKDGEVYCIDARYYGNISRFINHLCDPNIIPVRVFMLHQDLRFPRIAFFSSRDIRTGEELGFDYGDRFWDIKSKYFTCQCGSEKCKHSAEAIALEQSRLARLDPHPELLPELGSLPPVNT
# In short: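 Sf9-expressed human G9a (added as 1 nM solution), 0.5% DMSO final, with streptavidin-XL665 at 16 μM final and europium cryptate donor. After 1 h at room temperature, the 665/620 nm ratio was read against vehicle and no-enzyme controls. IC50 from a 4-parameter inhibition fit.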
# DNMT1 [4] = target: T1, DNMT1; experiment: DNMT1 enzyme activity assay (TR-FRET, EPIgeneous methyltransferase assay); format: biochemical
# In short: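 Human DNMT1, added at 1 nM, with 0.5% final DMSO; activity read by TR-FRET detection of the product SAH, where signal falls as SAH rises. The value is the 665/620 nm ratio, and IC50 comes from a 4-parameter inhibition fit.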
# Target sequence in this assay (P26358 whole entry): as the sequence (P26358 whole entry, species assumed) above
# OCI-Ly3 = experiment: Cell proliferation assay, OCI-Ly3 (ABC-DLBCL); format: cell-based; details: Homo sapiens, 48 hours of treatment, Table 3
# Method: as §1, §2, §3
# PLC/PRF/5 = experiment: Cell proliferation assay, PLC/PRF/5 (HCC); format: cell-based; details: Homo sapiens, 48 hours of treatment, Table 3
# Method: as §1, §2, §3
# DNMT1 [5] = target: T1, DNMT1; details: reported in the literature (Vedadi 2011; Liu 2013); read-out: IC50 against DNMT1; cited from earlier work
# Target sequence in this assay (P26358 whole entry, species assumed): as the sequence (P26358 whole entry, species assumed) above
# [6] = Homo sapiens, JJN-3, Table 5 comparison
# [7] = Homo sapiens, ALL, Table 5 comparison
# [8] = Homo sapiens, MV4-11, Table 5 comparison
# [9] = Homo sapiens, U-266, Table 5 comparison
# [10] = Homo sapiens, OCI-AML2, Table 5 comparison
structure (smiles),measurement,setting,value
"Nc1ncn([C@@H]2O[C@H](CO)[C@@H](O)[C@H]2O)c(=O)n1 [5-azacytidine, reference compound]",GI50,JJN3; [6],≥ 10 µM
same,GI50,CEMO-1; [7],1 to 10 µM
same,GI50,MV411; [8],1 to 10 µM
same,GI50,"LAL-CUN-2; ALL, Table 5 comparison",≥ 10 µM
same,GI50,U266; [9],1 to 10 µM
same,GI50,OCI-AML-2; [10],≥ 10 µM
"COc1cc2nc(N3CCCN(C)CC3)nc(NC3CCN(Cc4ccccc4)CC3)c2cc1OC [BIX01294, N-(1-benzyl-4-piperidyl)-6,7-dimethoxy-2-(4-methyl-1,4-diazepan-1-yl)quinazolin-4-amine]",GI50,JJN3; [6],≥ 10 µM
same,GI50,CEMO-1; [7],1 to 10 µM
same,"Folding respect to untreated (reprogramming efficiency, AP+ colonies)",BJ human fibroblasts [1],1.04
same,IC50,DNMT3A,> 100 µM
same,"Folding respect to untreated (reprogramming efficiency, AP+ colonies)",BJ human fibroblasts [2],1.29
same,GI50,MV411; [8],≥ 10 µM
same,GI50,"LAL-CUN-2; ALL, Table 5 comparison",1 to 10 µM
same,IC50,DNMT1 [3],> 100 µM
same,GI50,U266; [9],≥ 10 µM
same,GI50,OCI-AML-2; [10],1 to 10 µM
COc1cc2c(NC3CCN(C4CC4)CC3)cc(-c3ccc(C)o3)nc2cc1OCCCN1CCCC1 [Compound 3-20],GI50,HepG2,0.1 to 1 µM
same,GI50,OCI-Ly10,0.1 to 1 µM
same,GI50,"CEMO-1; Homo sapiens, 48 hours of treatment, Table 3",0.1 to 1 µM
same,GI50,Hep3B,0.1 to 1 µM
same,GI50,"LAL-CUN-2; 48 hours of treatment, Table 3",1 to 10 µM
same,IC50,human G9a enzyme,< 0.1 µM
same,IC50,DNMT1 [4],0.1 to 0.5 µM
same,GI50,OCI-Ly3,0.1 to 1 µM
same,GI50,PLC/PRF/5,0.1 to 1 µM
"Nc1ncn([C@H]2C[C@H](O)[C@@H](CO)O2)c(=O)n1 [Decitabine, reference compound]",GI50,JJN3; Table 5 comparison,≥ 10 µM
same,GI50,"CEMO-1; ALL, Table 5 comparison",0.1 to 1 µM
same,GI50,MV411; Table 5 comparison,≥ 10 µM
same,GI50,"LAL-CUN-2; ALL, Table 5 comparison",≥ 10 µM
same,GI50,U266; Table 5 comparison,≥ 10 µM
same,GI50,OCI-AML-2; Table 5 comparison,≥ 10 µM
"COc1cc2c(NC3CCN(C(C)C)CC3)nc(C3CCCCC3)nc2cc1OCCCN1CCCC1 [UNC0638, 2-cyclohexyl-N-(1-isopropyl-4-piperidyl)-6-methoxy-7-(3-pyrrolidin-1-ylpropoxy)quinazolin-4-amine, reference compound]",GI50,JJN3; [6],≥ 10 µM
same,GI50,CEMO-1; [7],1 to 10 µM
same,GI50,MV411; [8],≥ 10 µM
same,GI50,"LAL-CUN-2; ALL, Table 5 comparison",1 to 10 µM
same,GI50,U266; [9],≥ 10 µM
same,GI50,OCI-AML-2; [10],1 to 10 µM
"COc1cc2c(NC3CCN(C(C)C)CC3)nc(N3CCC(F)(F)CC3)nc2cc1OCCCN1CCCC1 [UNC0642, 2-(4,4-difluoro-1-piperidyl)-N-(1-isopropyl-4-piperidyl)-6-methoxy-7-(3-pyrrolidin-1-ylpropoxy)quinazolin-4-amine]",IC50,DNMT1 [5],> 50 µM

# — patent US9840500B2, “Compounds as dual inhibitors of histone methyltransferases and DNA methyltransferases” (FUNDACIÓN PARA LA INVESTIGACIÓN MÉDICA APLICADA, priority 2014, dated 2017)
